Test results as given in patent US20210252025A1, “SYNERGIC PHARMACEUTICAL COMBINATION OF A SELECTIVE INHIBITOR OF CYCLOOXYGENASE-2 AND AN ANTHRAQUINONE DERIVATIVE” (priority 2018, published 2021).

Tests used:
[1] = tested on: rats with gout induced by intra-articular uric acid; assay: Pain-induced functional impairment model in the rat (PIFIR model), antinociceptive effects; assay type: in vivo, male Wistar rats
Experimental: The following compounds were employed: uric acid, celecoxib and diacerein, propylene glycol, carboxymethyl cellulose and mineral oil. The celecoxib and diacerein were dissolved in propylene glycol (5%) and carboxymethyl cellulose.
It started with determining the antinociceptive effects of the individual compounds to then go on to analyze the effects of the combination, employing the “Pain-induced functional impairment model in the rat” (“PIFIR model”). The animals were anesthetized in a glass desiccator, saturated with ether vapor. The gout was induced by applying an intra-articular injection (i.a.) of 0.05 ml of uric acid suspended in mineral oil at 30% in the right hind member, precisely in the femur-tibia-patella joint.
A 1 mL glass syringe with a 4-mm-long No. 22 needle was used for the intra-articular injection. Immediately afterwards, an electrode is attached to each hind paw (of the rats) in the middle of the plantar calluses. The rats were left to recover from the anesthesia and placed in a 30-cm-diameter rotary stainless-steel cylinder. The cylinder was turned at 4 r.p.m., forcing the rats to walk for 2 min every half hour, for a total of 6.5 hours, (2.5 h to generate the arthritis and 4 h for the assessment of antinociceptive effects. The variable measured was the contact time of each one of the rats' hind legs in the cylinder.
First it was decided to determine the range of doses that could form the celecoxib dose/response curve. […] The 50 mg/kg dose of diacerein has been determined to be a proper dose in the preclinical stage to be employed in combination and be able to determine if changes are produced in the antinociceptive effects.
Thus, the possible antinociceptive effects of both the individual and the combined forms of the compounds were determined and analyzed using animals with gout in the experimental model of Pain-induced functional impairment model in the rat. […]
After the uric acid was administered to the joint to produce the gout type impairment and alteration, there was a wait of 2.5 hours for the total impairment to be produced (the symptoms of gout were already complete at 2.5 hours after the uric acid was administered). This time (2.5 hours after the administration of the uric acid) was considered to be “0” time, for administering the treatment, at this moment, with the individual drugs and the drugs in combined form, followed by the temporary courses of each treatment being determined for the following 4 hours. […]
From the afore-described that corresponds to the experimental model of preclinical analysis of this combination of celecoxib with diacerein whose protection is being sought, the following results were obtained: The data are expressed as a percentage Functionality Index (FI %). […]

rats = assay: Assessment of toxic effects (lethality), oral
Text: In order to determine possible antinociceptive effects and toxic effects, male Wistar rats [Crl:(WI)BR] were employed with a weight of between 180 and 200 g. All the experimental procedures followed the recommendations of the Committee for Research and Ethical Issues of the International Association for the Study of Pain and the Guidelines on Ethical Standards for Investigations of Experiment Pain in Animals. The number of animals for experimentation was kept to a minimum (6 animals per experimental point for antinociceptive effects and 10 animals per experimental point for adverse effects: lethality). The animals were kept in a room with alternating dark/light cycles. Twelve hours before the antinociception experiments, food was withdrawn from the rats, only leaving them free access to water. All the experiments were carried out during the light phase.
In the determinations presented for the individual drugs or drugs in combination, an attempt was made to administer the treatment on a single occasion but, when this was not possible owing to the high concentration and limits of solubility, several administrations were made with 3-hour time intervals. The established doses were always increased in logarithmic units administered orally both for celecoxib and for diacerein.
In the determinations presented below, the treatment was administered on a single occasion and, in the case of celecoxib, high doses in several administrations until the required dose is completed. The established doses were always increased in logarithmic units and administered orally.

[2] = cited from earlier work

## Cc1ccc(-c2cc(C(F)(F)F)nn2-c2ccc(S(N)(=O)=O)cc2)cc1 [celecoxib, 4-[5-(4-methylphenyl)-3-(trifluoromethyl)-1H-pyrazol-1-yl]benzenesulfonamide]
[1]; celecoxib by itself, oral, acute administration, doses 3.2 to 1000 mg/kg, 4 h assessment, mean ± standard error, FIG. 2
  maximum antinociceptive effectiveness (AUC of temporary courses, DRC): 191.9±27.2 au
[1]; oral, acute administration, 4 h, celecoxib 3.2 to 1000 mg/kg alone or with diacerein 50 mg/kg
  temporary courses of antinociceptive effect (FI %), dose dependence: dose-dependent antinociceptive effects
[1]; oral, chronic (7 days) vs acute form
  antinociceptive effects of chronic treatment compared with acute administration: better antinociceptive effects
rats; oral, rats, 24 h post-treatment, FIG. 7
  dose that starts to generate effects of lethality at 24 hours: 17800 mg/kg
rats; oral, rats, 48 h post-treatment, FIG. 8
  dose that starts to generate effects of lethality at 48 hours: 10000 mg/kg
rats; oral, rats, 72 h post-treatment, FIG. 9
  dose that starts to generate effects of lethality at 72 hours: 5600 mg/kg
[2]; in vivo
  binding to plasma proteins: 97%
[2]; oral
  time to maximum plasma concentration: around 3 hours

## CC(=O)Oc1cccc2c1C(=O)c1c(OC(C)=O)cc(C(=O)O)cc1C2=O [diacerein, 4,5-Bis(acetyloxy)-9,10-dihydro-9,10-dioxo-2-anthracenecarboxylic acid]
[1]; 50 mg/kg oral doses, 4 h of assessment
  antinociceptive effect (recovery of FI %): did not show any antinociceptive effect whatsoever
rats; male, Wistar [Crl:(WI)BR], rat, in vivo, po, 48 h
  dose that starts to generate effects of lethality at 48 hours: 1800 mg/kg
rats; male, Wistar [Crl:(WI)BR], rat, in vivo, po, 72 h
  dose that starts to generate effects of lethality at 72 hours: 1000 mg/kg
rats; oral, rats, relative to the DRC of celecoxib by itself
  position of the DRC for the effects of lethality: more to the left of that of celecoxib
